Reference: US12622901B2, “Compounds for tau protein degradation” (Dana-Farber Cancer Institute, Inc., priority 2017, dated 2026)
Entries after “also recorded” stand apart in the source; their conditions may differ. Read-outs that look alike come from different tables or passages of the source. Values belong to the compound of their own block, whether it stands above or below them.

Tests used:
A152T neurons [1] = assay: Neuronal viability / rescue of stress vulnerability to β-amyloid (1-42) peptide; conditions: A152T neurons differentiated 8 weeks; compound alone; FIG. 7
tau protein [2] = target: T1, tau protein (Homo sapiens, UniProt P10636, A469T); assay: Tau degradation assay (western blot) in human tau-A152T neurons; type: cell-based
T1 construct: cultured human differentiated frontotemporal lobar dementia (FTD) neurons; endogenous in cells; host or cells: human differentiated FTD neurons, tau-A152T (line 19-5-RC6)
T1 sequence (P10636 1-441 isoform P10636-8 A152T): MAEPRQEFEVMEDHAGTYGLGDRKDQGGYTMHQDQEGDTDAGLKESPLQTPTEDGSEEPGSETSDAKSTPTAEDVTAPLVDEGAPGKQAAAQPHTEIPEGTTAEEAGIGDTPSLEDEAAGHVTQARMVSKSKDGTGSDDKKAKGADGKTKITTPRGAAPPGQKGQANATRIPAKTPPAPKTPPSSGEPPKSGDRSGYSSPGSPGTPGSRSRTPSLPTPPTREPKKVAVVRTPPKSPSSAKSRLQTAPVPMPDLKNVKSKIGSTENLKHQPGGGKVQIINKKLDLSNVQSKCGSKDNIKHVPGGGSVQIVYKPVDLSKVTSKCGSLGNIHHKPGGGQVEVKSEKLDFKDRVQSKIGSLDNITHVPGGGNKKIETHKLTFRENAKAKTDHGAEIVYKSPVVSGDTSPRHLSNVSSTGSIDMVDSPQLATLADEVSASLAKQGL
Description: Example compounds 1-12 were evaluated for their ability to degrade tau protein in cultured human differentiated frontotemporal lobar dementia (FTD) neurons. […] For each condition, 1 well of differentiated neuronal cells (6 well-plate) was washed and collected in PBS, pelleted and lysed in RIPA buffer (Boston Bio-Products) with 2% SDS (Sigma), protease inhibitors (Roche Complete Mini tablets), and phosphatase inhibitors (Sigma), followed by sonication in a water sonicator (Bransonic Ultrasonic Baths, Thomas Scientific) for 5 min, and centrifugation at 20,000 g for 15 min. Supernatants were transferred to new tubes, total protein concentration was quantified with the Pierce BCA Protein Assay Kit (Thermo), and SDS-PAGE gels were loaded with 10 μg total protein per well (pre-boiled samples). Western blots were performed with the Novex NuPAGE SDS-PAGE Gel System (Invitrogen). All samples were resolved in 7% Tris-Acetate gels with Tris-Acetate running buffer (Invitrogen). Blots were probed with antibodies against total tau (TAU5) and phosphosrylated tau (Ser396), along with β-actin as a loading control; followed by corresponding HRP-linked secondary antibodies (Cell Signaling Technology), and SuperSignal West Pico Chemiluminescent Substrate (Thermo) detection. Membranes were exposed to autoradiographic film (LabScientific) and films were scanned using an Epson Perfection V800 Photo Scanner. Protein band intensities (pixel mean intensity) were quantified using Adobe Photoshop CS5 Histogram function. Whereas the vehicle alone (DMSO) had no effect on tau, varying degrading activity was observed amongst the compounds, however with overall similar relative levels of degrading activity between tau-A152T neurons and tau-P301L neurons. Compounds were added at the doses indicated of either 0.1, 1, 5, or 10 μM.
(§1) Four-week differentiated neurons, both non-mutant (8330-8) and tau-A152T (19-5-RC6) were employed. The neurons were treated with T807 for 24 hours (at 10 μg/mL=59.4 μM). One well of differentiated neuronal cells (6 well-plate, treated or untreated) was washed and collected in PBS, pelleted and directly lysed in 200 μL of Sample Buffer (New England Biolabs) supplemented with 3X DTT, boiled for 15 min and 10 μL of each lysate was run by SDS-PAGE in a 4-12% Bis-Tris Gel, with MOPS running buffer. Blots were probed with antibodies to total tau (DA9) and phosphorylated tau (Ser396, PHF1, AT8) along with GAPDH as a loading control.
Example compounds 2-5 were reevaluated for their ability to degrade tau protein in human FTD neurons as well as evaluate their effect on E3 ubiquitin ligases CRBN, VHL, and CHIP (FIG. 4A-E). For each control and treatment, 1 well of differentiated neuronal cells (6 well-plate) was washed and collected in PBS, pelleted and lysed in RIPA buffer (Boston Bio-Products) with 2% SDS (Sigma), protease inhibitors (Roche Complete Mini tablets), and phosphatase inhibitors (Sigma), followed by sonication in a water sonicator (Bransonic Ultrasonic Baths, Thomas Scientific) for 5 min, and centrifugation at 20,000 g for 15 min. Supernatants were transferred to new tubes, total protein concentration was quantified with the Pierce BCA Protein Assay Kit (Thermo), and SDS-PAGE gels were loaded with 10 μg total protein per well (pre-boiled samples). […] Protein band intensities (pixel mean intensity) were quantified using Adobe Photoshop CS5 Histogram function. […]

tau protein [3] = target: T2, tau protein (Homo sapiens, UniProt P10636); assay: Tau degradation assay (western blot) in non-mutant control human neurons; type: cell-based
T2 construct: Four-week differentiated neurons, both non-mutant (8330-8) and tau-A152T (19-5-RC6) were employed; endogenous in cells; host or cells: human differentiated non-mutant control neurons (8330-8, 8330-8-RC1, CTR2-L17-RC2)
T2 sequence (P10636 1-441 isoform P10636-8): as the sequence (P10636 1-441 isoform P10636-8 A152T) above, with T152A counted along it
Description: as §1
Example compounds 2-5 were again evaluated in tau degradation assays in non-mutant control, A152T and P301L neurons (6-week differentiated). Non-mutant neurons were employed as a negative control since derivatives of T807 should not recognize non-disease states of tau based upon how the series was identified, using selection for binding to pathological forms of tau in post-mortem brain lysates and tissue slices. […] Supernatants were transferred to new tubes, total protein concentration was quantified with the Pierce BCA Protein Assay Kit (Thermo), and SDS-PAGE gels were loaded with 10 μg total protein per well (pre-boiled samples). […] Protein band intensities (pixel mean intensity) were quantified using Adobe Photoshop CS5 Histogram function. […]

tau protein [4] = target: T3, tau protein (Homo sapiens, UniProt P10636, P618L); assay: Tau degradation assay (western blot) in human tau-P301L neurons; type: cell-based
T3 construct: cultured human differentiated frontotemporal lobar dementia (FTD) neurons; endogenous in cells; host or cells: human differentiated FTD neurons, tau-P301L
T3 sequence (P10636 1-441 isoform P10636-8 P301L): as the sequence (P10636 1-441 isoform P10636-8 A152T) above, with T152A, P301L counted along it
Description: Example compounds 1-12 were evaluated for their ability to degrade tau protein in cultured human differentiated frontotemporal lobar dementia (FTD) neurons. […] For each condition, 1 well of differentiated neuronal cells (6 well-plate) was washed and collected in PBS, pelleted and lysed in RIPA buffer (Boston Bio-Products) with 2% SDS (Sigma), protease inhibitors (Roche Complete Mini tablets), and phosphatase inhibitors (Sigma), followed by sonication in a water sonicator (Bransonic Ultrasonic Baths, Thomas Scientific) for 5 min, and centrifugation at 20,000 g for 15 min. Supernatants were transferred to new tubes, total protein concentration was quantified with the Pierce BCA Protein Assay Kit (Thermo), and SDS-PAGE gels were loaded with 10 μg total protein per well (pre-boiled samples). Western blots were performed with the Novex NuPAGE SDS-PAGE Gel System (Invitrogen). […] Protein band intensities (pixel mean intensity) were quantified using Adobe Photoshop CS5 Histogram function. […]
Example compounds 2-5 were reevaluated for their ability to degrade tau protein in human FTD neurons as well as evaluate their effect on E3 ubiquitin ligases CRBN, VHL, and CHIP (FIG. 4A-E). […] Supernatants were transferred to new tubes, total protein concentration was quantified with the Pierce BCA Protein Assay Kit (Thermo), and SDS-PAGE gels were loaded with 10 μg total protein per well (pre-boiled samples). […]

A152T neurons [5] = test system: A152T neurons

dose-dependency of effect on tau (tau protein [2]; 6-week differentiated A152T neurons, treatment for 24 hours, FIG. 6): dose dependent effect on tau
Compound: O=C(CCc1ccc2c(c1)[nH]c1ccncc12)NCCOCCNc1cccc2c1C(=O)N(C1CCC(=O)NC1=O)C2=O (stereo not shown) [Compound 2, N-(2-(2-((2-(2,6-dioxopiperidin-3-yl)-1,3-dioxoisoindolin-4-yl)amino)ethoxy)ethyl)-3-(5H-pyrido[4,3-b]indol-7-yl)propanamide]
effect on neuronal viability (A152T neurons [1]): no effect on neuronal viability

Compound: Fc1ccc(-c2ccc3c(c2)[nH]c2ccncc23)cn1 [Compound T807]
effect on total tau and phosphorylated tau levels (tau protein [3]; non-mutant (8330-8) neurons, four-week differentiated, 24 h at 10 μg/mL=59.4 μM, FIG. 3): No significant tau lowering activity; also recorded: no effect on tau levels and did not degrade tau | effect on total tau and phospho-tau (S396) levels (tau protein [3]; non-mutant control neurons, 6-week differentiated, 1 μM, FIG. 5): no effect | effect on total tau and phospho-tau (S396) levels (tau protein [2]; A152T neurons, 6-week differentiated, 1 μM, FIG. 5): no effect | effect on total tau and phosphorylated tau levels (tau protein [2]; tau-A152T (19-5-RC6) neurons, four-week differentiated, 24 h at 10 μg/mL=59.4 μM, FIG. 3): No significant tau lowering activity; also recorded: no effect on tau levels and did not degrade tau | effect on total tau and phospho-tau (S396) levels (tau protein [4]; P301L neurons, 6-week differentiated, 1 μM, FIG. 5): no effect

Compound: Nc1cccc2c1CN(C1CCC(=O)NC1=O)C2=O (stereo not shown) [Lenalidomide]
effect on total tau and hyperphosphorylated tau levels (tau protein [2]; tau-A152T neurons, 5-week differentiated, 24 h treatment, 0.1, 1, 5 or 10 μM (lenalidomide 1 or 10 μM), TAU5, pSer396): no effect on tau levels | effect on total tau and hyperphosphorylated tau levels (tau protein [4]; tau-P301L neurons, 8-week differentiated, 24 h treatment, 0.1, 1, 5 or 10 μM (lenalidomide 1 or 10 μM), TAU5, pSer396): no effect on tau levels

Compound: N-(17-(2-((2-(2,6-dioxopiperidin-3-yl)-1,3-dioxoisoindolin-4-yl)amino)-3,6,9,12,15-pentaoxaheptadecyl)-3-(5H-pyrido[4,3-b]indol-7-yl)propanamide [Compound 5]
effect on neuronal viability (A152T neurons [5]): no effect on neuronal viability
